This passage reports Ki results from patent publication US20050234066A1, “Alpha substituted carboxylic acids” (Agouron Pharmaceuticals, Inc., priority 2004, published 2005).

One may read the Ki as the dissociation constant of the complex between target and ligand, obtained from inhibition or displacement.

Structures are written as SMILES.

The target in one assay is T1, PPAR-γ (Homo sapiens, UniProt P37231).
T1 sequence (P37231 1-505): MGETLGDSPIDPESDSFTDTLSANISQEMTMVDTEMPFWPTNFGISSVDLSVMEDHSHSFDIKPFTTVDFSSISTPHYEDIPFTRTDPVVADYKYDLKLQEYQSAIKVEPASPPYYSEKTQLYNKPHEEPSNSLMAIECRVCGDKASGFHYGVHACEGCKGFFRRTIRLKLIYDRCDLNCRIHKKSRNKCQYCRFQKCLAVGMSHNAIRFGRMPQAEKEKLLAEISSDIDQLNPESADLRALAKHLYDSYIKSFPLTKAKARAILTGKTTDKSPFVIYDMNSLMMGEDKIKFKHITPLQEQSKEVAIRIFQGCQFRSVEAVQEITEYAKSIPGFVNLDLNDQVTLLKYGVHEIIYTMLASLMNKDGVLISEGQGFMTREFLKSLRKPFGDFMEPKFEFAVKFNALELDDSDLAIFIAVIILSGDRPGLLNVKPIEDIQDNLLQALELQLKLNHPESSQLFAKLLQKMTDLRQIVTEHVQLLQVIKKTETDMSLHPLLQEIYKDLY
Nature of the assay: Scintillation Proximity Assay (SPA), displacement of 3H labeled darglitazone. The assay is classed as binding. As to conditions: 3H darglitazone displacement, read-out: PPAR-gamma Ki. (SPA uses beads or plates that emit light when radiolabelled molecules are held near them.)
From the text: Scintillatian Proximity Assay (SPA) Assays
In the SPA assay, 3H labeled darglitazone (for PPAR-γ) or GW2331 (for PPAR-α) is bound to the PPAR protein captured on SPA polylysine beads and generates radioactive count signal that can be detected by TopCounts (Packard). The PPAR-bound 3H labeled ligand can be displaced by an unlabeled compound. The Ki of the compound can be then determined by the extent of displacement at various compound concentrations. Reagents: • SPA polylysine beads, which can be purchased from Amersham Bioscience. • H labeled Darglitazone for PPAR-γ. • H labeled GW2331 for PPAR-α. • PPAR proteins. • Buffer—PBS, 10% glycerol, 14 mM beta-mercaptoethanol.
As to `Cc1oc(-c2ccccc2)nc1COc1ccc(CC2(C(=O)O)CCC2)cc1` [Example C-17], the inhibition constant (Ki) stood at 26 µM.
Take `Cc1oc(-c2ccccc2)nc1CCOc1cccc(CC2(C(=O)O)CCC2)c1` [Example C-18]: the inhibition constant Ki amounted to 3.5 µM.
Regarding `Cc1oc(-c2cccc(N(C)C)c2)nc1CCOc1ccc(CC2(C(=O)O)CCC2)cc1` [Example C-21], the inhibition constant Ki is 0.053 µM.
On to `Cc1oc(-c2ccccc2C#N)nc1CCOc1ccc(CC2(C(=O)O)CCC2)cc1` [Example C-22], for which the Ki amounted to 0.8 µM.
On the same count and under the same terms, the result for `Cc1oc(-c2ccc(C(N)=O)cc2)nc1CCOc1ccc(CC2(C(=O)O)CCC2)cc1` [Example C-23] reads 0.19 µM.
For the compound `Cc1oc(-c2ccc(C(F)(F)F)c(F)c2)nc1CCOc1ccc(CC2(C(=O)O)CCC2)cc1` [Example C-24], the inhibition constant Ki was determined as 0.083 µM.
Regarding `Cc1oc(-c2ccc(Cl)c(Cl)c2)nc1CCOc1ccc(CC2(C(=O)O)CCC2)cc1` [Example C-25], the inhibition constant (Ki) is 0.066 µM.
Take `Cc1ccc(-c2nc(CCOc3ccc(CC4(C(=O)O)CCC4)cc3)c(C)o2)cc1` [Example C-26]: the Ki amounted to 0.068 µM.
Still for that read-out and setting: the result for `Cc1oc(-c2ccc(Cl)cc2)nc1CCOc1ccc(CC2(C(=O)O)CCC2)cc1` [Example C-27] reads 0.026 µM; that for `COc1cccc(-c2nc(CCOc3ccc(CC4(C(=O)O)CCC4)cc3)c(C)o2)c1` [Example C-29], 0.006 µM.
On to `Cc1oc(-c2cccc(C(F)(F)F)c2)nc1CCOc1ccc(CC2(C(=O)O)CCC2)cc1` [Example C-30], for which the Ki worked out at 0.033 µM.
For the compound `Cc1oc(-c2cccc(Cl)c2)nc1CCOc1ccc(CC2(C(=O)O)CCC2)cc1` [Example C-31], the inhibition constant (Ki) came out at 0.026 µM.
For the compound `Cc1cccc(-c2nc(CCOc3ccc(CC4(C(=O)O)CCC4)cc3)c(C)o2)c1` [Example C-32], the Ki is 0.035 µM.
`Cc1oc(-c2ccc(C(F)(F)F)cc2)nc1CCOc1ccc(CC2(C(=O)O)CCC2)cc1` [Example C-33]: the inhibition constant (Ki) was 0.05 µM.
As to `O=C(O)C1(Oc2ccc(OCc3nc(-c4ccccc4)oc3-c3ccccc3)cc2)CCC1` [Example C-36], the Ki was determined as 1.7 µM.
As to `Cc1oc(-c2ccccc2)nc1CCOc1ccc(OC2(C(=O)O)CCC2)cc1` [Example C-40], the inhibitory constant (Ki) was 3.7 µM.
For `Cc1oc(-c2ccccc2)nc1COc1ccc(OC2(C(=O)O)CCC2)cc1` [Example C-42], the inhibitory constant (Ki) came to 33 µM.
For the compound `CCOC(c1ccc(OCCc2nc(-c3ccccc3)oc2C)nc1)C1(C(=O)O)CCC1` (stereo not drawn) [Example C-45], the Ki amounted to 0.22 µM.
On the same count and under the same terms, as for `Cc1oc(-c2ccccc2)nc1CCOc1ccc(CC2(C(=O)O)CCCC2)cn1` [Example C-46], the figure is 2 µM; as for `Cc1cccc(-c2nc(CCOc3ccc(CC4(C(=O)O)CCCO4)nc3)c(C)o2)c1` (stereo not drawn) [Example C-50], 0.043 µM.
Turning to `Cc1sc(-c2ccccc2)nc1CCOc1ccc(CC2(C(=O)O)CCCO2)nc1` (stereo not drawn) [Example C-51], the Ki stood at 0.18 µM.
With `Cc1oc(-c2ccc(Cl)cc2)nc1CCOc1ccc(CC2(C(=O)O)CCCO2)nc1` (stereo not drawn) [Example C-52], the Ki came to 0.3 µM.
In the case of `COc1ccc(-c2nc(CCOc3ccc(CC4(C(=O)O)CCCO4)nc3)c(C)o2)cc1` (stereo not drawn) [Example C-53], the Ki was found to be 0.093 µM.

The assay is the same for the next values; noted with them: PPAR-gamma Ki, 3H darglitazone displacement.
`COc1cccc(-c2nc(CCOc3ccc(CC4(C(=O)O)CCCO4)nc3)c(C)o2)c1` (stereo not drawn) [Example C-54]: the Ki came out at 0.02 µM.

A further assay concerns the target T2, PPAR-α (Homo sapiens, UniProt Q07869).
T2 sequence (Q07869 1-468): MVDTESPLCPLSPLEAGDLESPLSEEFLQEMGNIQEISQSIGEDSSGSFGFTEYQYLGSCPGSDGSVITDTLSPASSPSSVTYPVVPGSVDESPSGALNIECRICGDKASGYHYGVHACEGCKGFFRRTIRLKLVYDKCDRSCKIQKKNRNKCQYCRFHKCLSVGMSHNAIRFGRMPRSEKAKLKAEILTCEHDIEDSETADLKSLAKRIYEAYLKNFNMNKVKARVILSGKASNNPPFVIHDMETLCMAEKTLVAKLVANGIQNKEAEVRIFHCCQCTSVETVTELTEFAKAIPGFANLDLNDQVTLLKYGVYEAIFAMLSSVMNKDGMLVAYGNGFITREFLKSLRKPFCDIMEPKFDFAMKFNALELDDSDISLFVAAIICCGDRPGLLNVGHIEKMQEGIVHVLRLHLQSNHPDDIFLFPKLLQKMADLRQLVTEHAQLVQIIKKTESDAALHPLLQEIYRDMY
In words: Scintillation Proximity Assay (SPA), displacement of 3H labeled GW2331. The assay is classed as binding. As to conditions: 3H GW2331 displacement, read-out: PPAR-alpha Ki.
Consider `Cc1oc(-c2ccccc2)nc1COc1ccc(CC2(C(=O)O)CCC2)cc1` [Example C-17], for which the Ki was determined as 3.2 µM.
Same read-out and setting: as for `Cc1oc(-c2ccccc2)nc1CCOc1cccc(CC2(C(=O)O)CCC2)c1` [Example C-18], the figure is 0.065 µM; as for `Cc1oc(-c2cccc(N(C)C)c2)nc1CCOc1ccc(CC2(C(=O)O)CCC2)cc1` [Example C-21], 0.066 µM; as for `Cc1oc(-c2ccccc2C#N)nc1CCOc1ccc(CC2(C(=O)O)CCC2)cc1` [Example C-22], 2.1 µM.
Consider `Cc1oc(-c2ccc(C(N)=O)cc2)nc1CCOc1ccc(CC2(C(=O)O)CCC2)cc1` [Example C-23], for which the inhibitory constant (Ki) is 2.5 µM.
On to `Cc1oc(-c2ccc(C(F)(F)F)c(F)c2)nc1CCOc1ccc(CC2(C(=O)O)CCC2)cc1` [Example C-24], for which the inhibition constant (Ki) came out at 0.022 µM.
Regarding `Cc1oc(-c2ccc(Cl)c(Cl)c2)nc1CCOc1ccc(CC2(C(=O)O)CCC2)cc1` [Example C-25], the Ki came to 0.018 µM.
As for `Cc1ccc(-c2nc(CCOc3ccc(CC4(C(=O)O)CCC4)cc3)c(C)o2)cc1` [Example C-26], the inhibition constant (Ki) was 0.016 µM.
With `Cc1oc(-c2ccc(Cl)cc2)nc1CCOc1ccc(CC2(C(=O)O)CCC2)cc1` [Example C-27], the Ki came to 0.015 µM.
For `COc1cccc(-c2nc(CCOc3ccc(CC4(C(=O)O)CCC4)cc3)c(C)o2)c1` [Example C-29], the inhibition constant (Ki) worked out at 0.12 µM.
Still for that read-out and setting: the result for `Cc1oc(-c2cccc(C(F)(F)F)c2)nc1CCOc1ccc(CC2(C(=O)O)CCC2)cc1` [Example C-30] reads 0.11 µM; that for `Cc1oc(-c2cccc(Cl)c2)nc1CCOc1ccc(CC2(C(=O)O)CCC2)cc1` [Example C-31], 0.093 µM.
For the compound `Cc1cccc(-c2nc(CCOc3ccc(CC4(C(=O)O)CCC4)cc3)c(C)o2)c1` [Example C-32], the Ki is 0.15 µM.
Still for that read-out and setting: the result for `Cc1oc(-c2ccc(C(F)(F)F)cc2)nc1CCOc1ccc(CC2(C(=O)O)CCC2)cc1` [Example C-33] reads 0.01 µM; that for `O=C(O)C1(Oc2ccc(OCc3nc(-c4ccccc4)oc3-c3ccccc3)cc2)CCC1` [Example C-36], 21 µM; that for `Cc1oc(-c2ccccc2)nc1CCOc1ccc(OC2(C(=O)O)CCC2)cc1` [Example C-40], 0.7 µM.
Consider `Cc1oc(-c2ccccc2)nc1COc1ccc(OC2(C(=O)O)CCC2)cc1` [Example C-42], for which the inhibitory constant (Ki) was found to be 13 µM.
On the same count and under the same terms, as for `CCOC(c1ccc(OCCc2nc(-c3ccccc3)oc2C)nc1)C1(C(=O)O)CCC1` (stereo not drawn) [Example C-45], the figure is 7.7 µM; as for `Cc1oc(-c2ccccc2)nc1CCOc1ccc(CC2(C(=O)O)CCCC2)cn1` [Example C-46], 3.5 µM.
As for `Cc1cccc(-c2nc(CCOc3ccc(CC4(C(=O)O)CCCO4)nc3)c(C)o2)c1` (stereo not drawn) [Example C-50], the inhibitory constant (Ki) is 1.1 µM.
In the case of `Cc1sc(-c2ccccc2)nc1CCOc1ccc(CC2(C(=O)O)CCCO2)nc1` (stereo not drawn) [Example C-51], the Ki was found to be 2.9 µM.
In the case of `Cc1oc(-c2ccc(Cl)cc2)nc1CCOc1ccc(CC2(C(=O)O)CCCO2)nc1` (stereo not drawn) [Example C-52], the inhibitory constant (Ki) stood at 0.15 µM.
Consider `COc1ccc(-c2nc(CCOc3ccc(CC4(C(=O)O)CCCO4)nc3)c(C)o2)cc1` (stereo not drawn) [Example C-53], for which the Ki stood at 0.64 µM.

Still in this assay, the particulars now being: PPAR-alpha Ki, 3H GW2331 displacement.
As for `COc1cccc(-c2nc(CCOc3ccc(CC4(C(=O)O)CCCO4)nc3)c(C)o2)c1` (stereo not drawn) [Example C-54], the affinity, expressed as Ki, was 1.2 µM.
